Assay results from ChEMBL document CHEMBL5236613, “Exploration of 1,2,3-triazole linked benzenesulfonamide derivatives as isoform selective inhibitors of human carbonic anhydrase” (Bioorg Med Chem, 2023).

Key:
Carbonic anhydrase 9 = Carbonic anhydrase 9 (Homo sapiens, UniProt Q16790); assay: Inhibition of human transmembrane carbonic anhydrase 9 using 4-nitrophenyl acetate as substrate assessed as inhibition constant by spectrophotometric analysis
A549 = assay: cells; details: Homo sapiens, A549, 24 h
Description: Antiproliferative activity against human A549 cells assessed as inhibition of cell growth incubated for 24 hrs by MTT assay

Structure (SMILES) | Ki (Carbonic anhydrase 9) [µM] | IC50 (A549) [µM]
NS(=O)(=O)c1ccc(-n2cc(COC(=O)c3ccc4c(c3)C(=O)N(c3ccccc3Cl)C4=O)nn2)cc1 | 0.0186 | 290
NS(=O)(=O)c1ccc(-n2cc(COC(=O)c3ccc4c(c3)C(=O)N(c3cccc(F)c3)C4=O)nn2)cc1 | 0.0229 | 231
CCCCN1C(=O)c2ccc(C(=O)OCc3cn(-c4ccc(S(N)(=O)=O)cc4)nn3)cc2C1=O | 0.035 | 199
CCCCCCCCN1C(=O)c2ccc(C(=O)OCc3cn(-c4ccc(S(N)(=O)=O)cc4)nn3)cc2C1=O | 0.05 | 235
NS(=O)(=O)c1ccc(-n2cc(COC(=O)c3ccc4c(c3)C(=O)N(c3ccccc3I)C4=O)nn2)cc1 | 0.0353 | 258
N#Cc1ccc(N2C(=O)c3ccc(C(=O)OCc4cn(-c5ccc(S(N)(=O)=O)cc5)nn4)cc3C2=O)cc1 | 0.0286 | 266

More lines, now with the values ahead:

Ki (Carbonic anhydrase 9) [µM] | IC50 (A549) [µM] | Structure (SMILES)
0.0245 | 253 | Cc1cccc(C)c1N1C(=O)c2ccc(C(=O)OCc3cn(-c4ccc(S(N)(=O)=O)cc4)nn3)cc2C1=O
0.0752 | 161 | CCCCCCN1C(=O)c2ccc(C(=O)OCc3cn(-c4ccc(S(N)(=O)=O)cc4)nn3)cc2C1=O
0.0253 | 278 | NS(=O)(=O)c1ccc(-n2cc(COC(=O)c3ccc4c(c3)C(=O)N(c3cccc5ccccc35)C4=O)nn2)cc1
0.0183 | 300 | NS(=O)(=O)c1ccc(-n2cc(COC(=O)c3ccc4c(c3)C(=O)N(c3ccccc3)C4=O)nn2)cc1
0.0239 | 130 | NS(=O)(=O)c1ccc(-n2cc(COC(=O)c3ccc4c(c3)C(=O)N(Cc3ccc5c(c3)OCO5)C4=O)nn2)cc1
0.0489 | 352 | NS(=O)(=O)c1ccc(-n2cc(COC(=O)c3ccc4c(c3)C(=O)N(c3ccc(Cl)cc3)C4=O)nn2)cc1
– | 10.8 | COc1cccc2c1C(=O)c1c(O)c3c(c(O)c1C2=O)C[C@@](O)(C(=O)CO)C[C@@H]3O[C@H]1C[C@H](N)[C@H](O)[C@H](C)O1 [DOXORUBICIN]
